Key:
Assay in all cases: biochemical
CYP1A2 = biological target: T1, CYP1A2 (Homo sapiens, UniProt P05177)
T1 sequence (P05177 1-516): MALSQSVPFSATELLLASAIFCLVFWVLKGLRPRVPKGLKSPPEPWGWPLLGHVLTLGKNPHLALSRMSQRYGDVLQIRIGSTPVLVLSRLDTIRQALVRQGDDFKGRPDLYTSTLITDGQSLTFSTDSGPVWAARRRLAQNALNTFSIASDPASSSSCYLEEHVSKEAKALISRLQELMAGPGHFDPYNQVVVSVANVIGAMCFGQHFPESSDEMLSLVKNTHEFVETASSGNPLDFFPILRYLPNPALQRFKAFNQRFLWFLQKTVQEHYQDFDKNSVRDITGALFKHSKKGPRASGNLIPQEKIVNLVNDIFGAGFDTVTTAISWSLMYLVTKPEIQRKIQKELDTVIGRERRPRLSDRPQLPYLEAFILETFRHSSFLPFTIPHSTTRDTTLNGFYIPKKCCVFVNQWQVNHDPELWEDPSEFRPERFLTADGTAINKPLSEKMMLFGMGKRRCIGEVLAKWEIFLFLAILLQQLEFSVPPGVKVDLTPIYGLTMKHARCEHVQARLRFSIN

CYP2C9 = CYP2C9 (Homo sapiens, UniProt P11712)
CYP3A4 = CYP3A4 (Homo sapiens, UniProt P08684)
CYP2D6 = CYP2D6 (Homo sapiens, UniProt P10635)
CYP2C19 = CYP2C19 (Homo sapiens, UniProt P33261)
Sequence of CYP2C19 (P33261 whole entry): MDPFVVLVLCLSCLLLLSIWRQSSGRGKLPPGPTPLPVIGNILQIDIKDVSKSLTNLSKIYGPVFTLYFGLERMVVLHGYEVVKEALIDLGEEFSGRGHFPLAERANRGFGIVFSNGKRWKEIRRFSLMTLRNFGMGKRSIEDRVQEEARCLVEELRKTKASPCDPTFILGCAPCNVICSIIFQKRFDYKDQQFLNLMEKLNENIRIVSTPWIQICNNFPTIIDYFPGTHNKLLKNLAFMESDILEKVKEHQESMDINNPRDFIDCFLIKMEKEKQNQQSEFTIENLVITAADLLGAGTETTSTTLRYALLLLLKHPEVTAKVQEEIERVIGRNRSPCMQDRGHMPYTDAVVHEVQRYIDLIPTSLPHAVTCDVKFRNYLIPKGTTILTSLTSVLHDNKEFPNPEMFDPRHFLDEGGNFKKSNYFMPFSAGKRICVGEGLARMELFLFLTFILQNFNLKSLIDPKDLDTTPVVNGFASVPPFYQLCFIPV

Sequence of CYP2D6 (P10635 whole entry): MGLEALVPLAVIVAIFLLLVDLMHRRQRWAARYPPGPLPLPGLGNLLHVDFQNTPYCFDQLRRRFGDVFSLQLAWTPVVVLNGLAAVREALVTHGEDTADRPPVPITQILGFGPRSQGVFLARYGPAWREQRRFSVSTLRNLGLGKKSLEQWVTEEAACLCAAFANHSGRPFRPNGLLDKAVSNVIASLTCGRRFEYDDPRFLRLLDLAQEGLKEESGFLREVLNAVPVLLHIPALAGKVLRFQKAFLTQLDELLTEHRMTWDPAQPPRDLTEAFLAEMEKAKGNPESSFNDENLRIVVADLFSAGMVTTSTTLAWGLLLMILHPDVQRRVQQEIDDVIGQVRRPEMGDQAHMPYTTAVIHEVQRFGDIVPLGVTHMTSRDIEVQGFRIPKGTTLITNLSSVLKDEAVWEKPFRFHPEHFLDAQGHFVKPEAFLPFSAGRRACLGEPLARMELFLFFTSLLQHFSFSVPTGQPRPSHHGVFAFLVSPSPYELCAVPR
Sequence of CYP2C9 (P11712 whole entry): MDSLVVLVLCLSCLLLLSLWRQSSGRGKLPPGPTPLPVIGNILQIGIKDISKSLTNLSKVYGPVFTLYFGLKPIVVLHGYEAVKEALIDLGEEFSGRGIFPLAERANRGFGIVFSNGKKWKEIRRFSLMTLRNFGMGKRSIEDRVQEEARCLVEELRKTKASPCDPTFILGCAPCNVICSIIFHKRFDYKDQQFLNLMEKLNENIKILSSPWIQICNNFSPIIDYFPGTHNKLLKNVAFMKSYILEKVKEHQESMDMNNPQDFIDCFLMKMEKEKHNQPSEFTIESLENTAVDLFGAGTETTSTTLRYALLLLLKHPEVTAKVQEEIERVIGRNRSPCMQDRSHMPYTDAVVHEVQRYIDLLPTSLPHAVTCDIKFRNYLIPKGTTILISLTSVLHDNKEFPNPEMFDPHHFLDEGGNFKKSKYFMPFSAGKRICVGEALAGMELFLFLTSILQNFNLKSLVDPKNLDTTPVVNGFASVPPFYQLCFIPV
Sequence of CYP3A4 (P08684 whole entry): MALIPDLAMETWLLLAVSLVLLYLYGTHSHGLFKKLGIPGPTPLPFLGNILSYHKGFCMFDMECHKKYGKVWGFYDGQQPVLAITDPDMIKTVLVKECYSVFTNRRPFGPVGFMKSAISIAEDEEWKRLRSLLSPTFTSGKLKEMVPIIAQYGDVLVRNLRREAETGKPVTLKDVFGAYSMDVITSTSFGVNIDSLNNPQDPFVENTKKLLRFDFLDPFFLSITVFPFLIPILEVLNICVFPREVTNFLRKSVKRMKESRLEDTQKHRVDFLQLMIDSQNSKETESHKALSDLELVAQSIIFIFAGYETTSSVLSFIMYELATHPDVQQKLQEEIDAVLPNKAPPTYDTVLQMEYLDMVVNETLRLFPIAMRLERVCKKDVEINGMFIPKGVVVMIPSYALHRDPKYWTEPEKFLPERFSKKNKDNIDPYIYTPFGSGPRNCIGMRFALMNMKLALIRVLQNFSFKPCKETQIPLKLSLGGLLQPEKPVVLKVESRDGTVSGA

Compound	IC50 (CYP1A2) [µM]	IC50 (CYP2C9) [µM]	IC50 (CYP3A4) [µM]	IC50 (CYP2D6) [µM]	IC50 (CYP2C19) [µM]
CON=C(CCC(=O)O)c1nc2ccccc2n([C@H]2C[C@H]3CCC[C@@H](C2)N3C2CC3CCCC(C3)C2)c1=O (stereo partly drawn) [Compound 2, 4-[4-((1R,3R)—(S)-9-bicyclo[3.3.1]non-3-yl-9-aza-bicyclo[3.3.1]non-3-yl)-3-oxo-3,4-dihydro-quinoxalin-2-yl]-4-methoxyimino-butyric acid]	> 20	> 20	> 20	> 20	> 20
O=C(O)CCC(=NOCCO)c1nc2ccccc2n([C@H]2C[C@H]3CCC[C@@H](C2)N3C2CC3CCCC(C3)C2)c1=O (stereo partly drawn) [Compound 3, 4-[4-((1R,3R)—(S)-9-Bicyclo[3.3.1]non-3-yl-9-aza-bicyclo[3.3.1]non-3-yl)-3-oxo-3,4-dihydro-quinoxalin-2-yl]-4-(2-hydroxy-ethoxyimino)-butyric acid]	> 20	> 20	> 20	> 20	> 20
O=C(O)/C(=N\OCCO)c1nc2ccccc2n([C@H]2C[C@H]3CCC[C@@H](C2)N3C2CC3CCCC(C3)C2)c1=O (stereo partly drawn) [Compound 4]	> 20	> 20	> 20	> 20	> 20
CCN(CC)C(=O)CO/N=C(\C(=O)O)c1nc2ccccc2n([C@H]2C[C@H]3CCC[C@@H](C2)N3C2CC3CCCC(C3)C2)c1=O (stereo partly drawn) [Compound 5, [4-((1R,3R,7S)-9-bicyclo[3.3.1]non-3-yl-9-aza-bicyclo[3.3.1]non-3-yl)-3-oxo-3,4-dihydro-quinoxalin-2-yl]-diethylcarbamoylmethoxyimino-acetic acid]	> 20	> 20	> 20	> 20	> 20
O=C(O)CCC(=NO)c1nc2ccccc2n([C@H]2C[C@H]3CCC[C@@H](C2)N3C2CC3CCCC(C3)C2)c1=O (stereo partly drawn) [Compound 7, 4-[4-((1R,3R)—(S)-9-bicyclo[3.3.1]non-3-yl-9-aza-bicyclo[3.3.1]non-3-yl)-3-oxo-3,4-dihydro-quinoxalin-2-yl]-4-hydroxyimino-butyric acid]	> 20	> 20	> 20	> 20	> 20
CO/N=C(\CCC(=O)O)c1nc2ccccc2n([C@H]2C[C@H]3CCC[C@@H](C2)N3C2CCCCCCCCC2)c1=O [Compound 9, 4-[4-((1R,3R,7S)-9-cyclodecyl-9-aza-bicyclo[3.3.1]non-3-yl)-3-oxo-3,4-dihydro-quinoxalin-2-yl]-4-methoxyimino-butyric acid]	> 20	> 20	> 20	> 20	> 20
CCO/N=C(\CCC(=O)O)c1nc2ccccc2n([C@H]2C[C@H]3CCC[C@@H](C2)N3C2CC3CCCC(C3)C2)c1=O (stereo partly drawn) [Compound 11, 4-[4-((1R,3R,7S)-9-bicyclo[3.3.1]non-3-yl-9-aza-bicyclo[3.3.1]non-3-yl)-3-oxo-3,4-dihydro-quinoxalin-2-yl]-4-ethoxyimino-butyric acid]	> 20	> 20	> 20	> 20	> 20
CON=C(CCC(=O)O)c1nc2ccccc2n([C@H]2C[C@H]3CC[C@@H](C2)N3C2CC3CCCCC(C3)C2)c1=O (stereo partly drawn) [Compound 12, 4-(4-((1R,3R)-8-(bicyclo[4.3.1]decan-8-yl)-8-azabicyclo[3.2.1]octan-3-yl)-3-oxo-3,4-dihydroquinoxalin-2-yl)-4-(methoxyimino)butanoic acid]	> 20	> 20	> 20	> 20	> 20
O=C(O)C(=NOCCO)c1nc2ccccc2n([C@H]2C[C@H]3CCC[C@@H](C2)N3C2CC3CCCCC(C3)C2)c1=O (stereo partly drawn) [Compound 15]	> 20	> 20	> 20	> 20	> 20
C/C(=N\OCC(=O)O)c1nc2ccccc2n([C@H]2C[C@H]3CCC[C@@H](C2)N3C2CC3CCCC(C3)C2)c1=O (stereo partly drawn) [Compound 16]	> 20	> 20	> 20	> 20	> 20
CON=C(C(=O)O)c1nc2ccccc2n([C@H]2C[C@H]3CCC[C@@H](C2)N3C2CC3CCCCC(C3)C2)c1=O (stereo partly drawn) [Compound 17]	> 20	> 20	> 20	> 20	> 20
O=C(O)CCC(=NO)c1nc2ccccc2n([C@H]2C[C@H]3CCC[C@@H](C2)N3C2CCCCCCCCC2)c1=O [Compound 18]	> 20	> 20	> 20	> 20	> 20
O=C(O)C(=NOCCO)c1nc2ccccc2n([C@H]2C[C@H]3CC[C@@H](C2)N3C2CC3CCCCC(C3)C2)c1=O (stereo partly drawn) [Compound 19]	> 20	> 20	> 20	> 20	> 20
CO/N=C(\C(=O)O)c1nc2ccccc2n([C@H]2C[C@H]3CC[C@@H](C2)N3C2CC3CCCCC(C3)C2)c1=O (stereo partly drawn) [Compound 20, (Z)-2-(4-((1R,3R)-8-(bicyclo[4.3.1]decan-8-yl)-8-azabicyclo[3.2.1]octan-3-yl)-3-oxo-3,4-dihydroquinoxalin-2-yl)-2-(methoxyimino)acetic acid]	> 20	> 20	> 20	> 20	> 20
CC(=NOCC(=O)O)c1nc2ccccc2n(C2CC3CCC(C2)N3C2CC3CCCCC(C3)C2)c1=O (stereo not drawn) [Compound 22]	> 20	> 20	> 20	> 20	> 20
C/C(=N\OCC(=O)O)c1nc2ccccc2n([C@H]2C[C@H]3CCC[C@@H](C2)N3C2CC3CCCCC(C3)C2)c1=O (stereo partly drawn) [Compound 24, 2-((E)-1-(4-((1R,3R)-9-(bicyclo[4.3.1]decan-8-yl)-9-azabicyclo[3.3.1]nonan-3-yl)-3-oxo-3,4-dihydroquinoxalin-2-yl)ethylideneaminooxy)acetic acid]	> 20	> 20	> 20	> 20	> 20
CC[C@@H]1C[C@H]2CC(N3[C@@H]4CCC[C@H]3CC(n3c(=O)c(/C(CCC(=O)O)=N/OC)nc5ccccc53)C4)C[C@@H](C1)C2 (stereo partly drawn) [Compound 25]	> 20	> 20	> 20	> 20	–
CCO/N=C(\CCC(=O)O)c1nc2ccccc2n([C@H]2C[C@H]3CCC[C@@H](C2)N3C2CC3CC(CC)CC(C3)C2)c1=O (stereo partly drawn) [Compound 26]	> 20	> 20	> 20	> 20	–
CCN(CC)CCO/N=C(\CCC(=O)O)c1nc2ccccc2n(C2C[C@H]3CCC[C@@H](C2)N3C2C[C@@H]3C[C@@H](C)C[C@H](C2)C3)c1=O (stereo partly drawn) [Compound 27]	> 20	> 20	8.9	8.7	–
CC1CC2CC(C1)CC(N1[C@@H]3CCC[C@H]1C[C@@H](n1c(=O)c(/C(CCC(=O)O)=N/OCCCN(C)C)nc4ccccc41)C3)C2 (stereo partly drawn) [Compound 28]	> 20	> 20	6.1	3	–
CC1CC2CC(C1)CC(N1[C@@H]3CCC[C@H]1C[C@@H](n1c(=O)c(/C(CCC(=O)O)=N/OCCN(C)C)nc4ccccc41)C3)C2 (stereo partly drawn) [Compound 29]	> 20	> 20	> 20	11.6	–
CCON=C(C(=O)O)c1nc2ccccc2n([C@H]2C[C@H]3CCC[C@@H](C2)N3C2CC3CCCC(C3)C2)c1=O (stereo partly drawn) [Compound 30]	> 20	> 20	> 20	> 20	> 20
CC(C)ON=C(C(=O)O)c1nc2ccccc2n([C@H]2C[C@H]3CCC[C@@H](C2)N3C2CC3CCCC(C3)C2)c1=O (stereo partly drawn) [Compound 31]	> 20	> 20	> 20	> 20	> 20
CCON=C(C(=O)O)c1nc2ccccc2n([C@H]2C[C@H]3CCC[C@@H](C2)N3C2CC3CCCCC(C3)C2)c1=O (stereo partly drawn) [Compound 32, 2-(4-((1R,3R)-9-(bicyclo[4.3.1]decan-8-yl)-9-azabicyclo[3.3.1]nonan-3-yl)-3-oxo-3,4-dihydroquinoxalin-2-yl)-2-(ethoxyimino)acetic acid]	> 20	> 20	> 20	> 20	> 20
CCC1CC2CC(C1)CC(N1[C@@H]3CCC[C@H]1C[C@@H](n1c(=O)c(/C(CCC(=O)O)=N/OCCN(C)C)nc4ccccc41)C3)C2 (stereo partly drawn) [Compound 34]	16.1	> 20	17.5	> 20	–
CC[C@@H]1C[C@H]2CC(N3[C@@H]4CCC[C@H]3CC(n3c(=O)c(/C(CCC(=O)O)=N/OCCCN(C)C)nc5ccccc53)C4)C[C@@H](C1)C2 (stereo partly drawn) [Compound 35]	> 20	> 20	> 20	> 20	–

Reference: patent publication US9040533B2, “Oxime-substituted-quinoxaline-type piperidine compounds as ORL-1 modulators” (priority 2012, dated 2015)
